Data from patent US20200261440A1, “ZINC IONOPHORES AND USES THEREOF” (THE UNIVERSITY OF QUEENSLAND, priority 2017, published 2020).
Like-named read-outs stand apart in the source and are kept apart here. Marks after values point to notes of the source that are not given here.

Experiments:
[1] = system: GAS strain HKU16 (Streptococcus pyogenes strain HKU16); assay: microbe, parasite or virus in culture; type: cell-based
Description: (§1) J. Path. Bact. […] Proc. Soc.
(§2) MIC assays were carried out in biological triplicates.
(§3) M100 Performance Standards for Antimicrobial Susceptibility Testing, 27th Edition.

[2] = system: Vancomycin-resistant Enterococci (VRE) clinical isolate RBWH1; assay: MIC by broth microdilution (CLSI); type: cell-based, Enterococcus; conditions: for antibiotic sensitivity of resistant strain: addition of sub-inhibitory PBT2+zinc(II) ions
Description: as §1, §2, §3

[3] = system: Klebsiella pneumoniae strain MS6771; assay: MIC by broth microdilution (CLSI); type: cell-based
[4] = system: VRE; assay: Murine wound infection model; type: in vivo, BALB/c mice; conditions: 4 days
Excerpt: For wound infection, 4-7 week old female BALB/c mice were used and housed in individual cages [Pandey, M. et al. A synthetic M protein peptide synergizes with a CXC chemokine protease to induce vaccine-mediated protection against virulent streptococcal pyoderma and bacteremia. J Immunol 194, 5915-5925, doi:10.4049/jimmunol.1500157 (2015)]. The neck area of the mice was shaved and residual hair removed using Nair (Church & Dwight) prior to the experiment. On the day of infection, mice were anesthetized by inhalation of methoxyflurane and a small superficial scarification was made on the shaved skin using a metal file. For infection, 5×10^6-2×10^7 CFU GAS or 5×10^5-2×10^6 CFU MRSA/VRE were applied onto the scarified skin. […] Mice were treated with ointment twice daily and a total of 9 treatments were applied. […] […] After four days treatment, the mice were euthanized, the scarified skin was excised, and washed twice in PBS by vortexing for 30 seconds. […] Each treatment group contained six mice and statistical significance was calculated using an unpaired t-test (non-parametric).

[5] = system: Methicillin-resistant Staphylococcus aureus (MRSA) strain USA300; assay: MIC by broth microdilution (CLSI)
Description: GAS HKU16, MRSA USA300, VRE RBWH1, Klebsiella pneumoniae strain MS6771, E. coli strain MS8345 and Streptococcus pneumoniae strain 23F were grown in Todd-Hewitt broth (THB) or agar with 1% yeast extract (THY) [Todd, E. W. & Hewitt, L. F. A new culture medium for the production of antigenic streptococcal haemolysin. […] Bacteria were routinely grown at 37° C. in ambient air.
MICs were determined by broth microdilution in accordance to CLSI guidelines (“Methods for Dilution Antimicrobial Susceptibility Tests for Bacteria That Grow Aerobically”, Clinical and Laboratory Standards Institute) [Clinical and Laboratory Standards Institute. […] For MRSA, VRE, Klebsiella pneumoniae and E. coli the assays were performed in MHB, and for GAS and Streptococcus pneumoniae MHB+2.5% lysed horse blood (LHB) was used. The bacterial inoculum was prepared by direct colony suspension aiming for 2-8×10^5 colony forming units (CFU)/mL bacteria per well. Antibiotics/compounds were serially diluted two-fold across the 96-well plate, the last column contained no antibiotics/compounds. The inoculum was added to the plate containing antibiotic/compound and incubated for 16-24 h at 35+/−2° C. […] MIC assays were carried out in biological triplicates.
Using Clinical and Laboratory Standards Institute guidelines for antimicrobial sensitivity testing [Clinical and Laboratory Standards Institute.

[6] = system: GAS; assay: Drop test assay, growth on THY agar; type: cell-based, Streptococcus pyogenes; conditions: PBT2 (1.5 μM), zinc(II) ions (400 μM)
Description: (§4) FIG. 1a illustrates growth of GAS, MRSA and VRE on THY agar in the presence or absence of PBT2 (1.5 μM) and zinc(II) ions (400 μM).
(§5) Bacteria were diluted from overnight cultures to get a starting OD600 of 0.01 in THY. Once the bacteria grew to an OD600 of 0.6, the culture were serially diluted in PBS and 5 μL of each dilution (undiluted, 10^−1, 10^−2, 10^−3, 10^−4, 10^−5) was plated on THY agar plates with or without zinc (400 μM) and/or PBT2 ([…]). Plates were incubated at 37° C. overnight. Drop tests were undertaken in biological triplicates.

[7] = system: MRSA; assay: Drop test assay, growth on THY agar; type: cell-based, Staphylococcus aureus; conditions: PBT2 (1.5 μM), zinc(II) ions (400 μM)
Description: as §4, §5

[8] = system: VRE; assay: Drop test assay, growth on THY agar; type: cell-based, Enterococcus; conditions: PBT2 (1.5 μM), zinc(II) ions (400 μM)
Description: as §4, §5

[9] = system: MCR-1 E. coli strain MS8345; assay: MIC by broth microdilution (CLSI); type: cell-based, Escherichia coli; conditions: for antibiotic sensitivity of resistant strain: MCR1-positive E. coli MS8345; for MIC: MCR-1 E. coli
Description: as §1
J Infect Dis. 1995 171:890-6). E. coli strain MS8345 is a MCR-1 resistant clinical isolate supplied by Prof. D. L. Paterson, University of Queensland Centre for Clinical Research.
(§6) (2017)]. […] MIC assays were carried out in biological triplicates.

[10] = system: P. aeruginosa strain 253-43-C; assay: MIC by broth microdilution (CLSI); type: cell-based, Pseudomonas aeruginosa
Description: They were obtained from Jan Bell, Australian Centre of Microbial Resistance Ecology (ACARE), University of Adelaide, Australia.
as §6

[11] = humans; up to 250 mg/day (oral) for 12 weeks; cited from earlier work
[12] = K. pneumoniae, RA-HQ-12: 16 μM, Zn: 64 μM
[13] = MRSA, RA-HQ-12: 3.5 μM, Zn: […], oxacillin with 2% NaCl
[14] = MRSA, RA-HQ-12: 3.5 μM, oxacillin with 2% NaCl

## CN[C@H](CC(C)C)C(=O)N[C@H]1C(=O)N[C@@H](CC(N)=O)C(=O)N[C@H]2C(=O)N[C@H]3C(=O)N[C@H](C(=O)N[C@H](C(=O)O)c4cc(O)cc(O)c4-c4cc3ccc4O)[C@H](O)c3ccc(c(Cl)c3)Oc3cc2cc(c3O[C@@H]2O[C@H](CO)[C@@H](O)[C@H](O)[C@H]2O[C@H]2C[C@](C)(N)[C@H](O)[C@H](C)O2)Oc2ccc(cc2Cl)[C@H]1O [Vancomycin, vancomycin]
[1]; Streptococcus pyogenes, GAS, RA-HQ-12: 3.5 μM
  MIC: 0.5 µg/mL
[1]; Streptococcus pyogenes, GAS, RA-HQ-12: 3.5 μM, Zn: […]
  MIC: 0.25 µg/mL
[1]; Streptococcus pyogenes, GAS, Zn: […] (RA-HQ-12 panel)
  MIC: 0.5 µg/mL
[1]; Streptococcus pyogenes, GAS, RA-HQ-12: 0 μM, Zn: 0 μM
  MIC: 0.5 µg/mL
[2]; Enterococcus, VRE, VRE RBWH1, CQ: 0 μM, Zinc: 0 μM
  MIC: > 128 µg/mL
[2]; Enterococcus, VRE, VRE RBWH1, CQ: 2.5 μM
  MIC: > 128 µg/mL
[2]; Enterococcus, VRE, VRE RBWH1, CQ: 2.5 μM, Zinc: 32 μM
  MIC: 1 µg/mL
[2]; Enterococcus, VRE, VRE RBWH1, PBT2: 0 μM, Zinc: 0 μM
  MIC: > 128 µg/mL
[2]; Enterococcus, VRE, VRE RBWH1, PBT2: 1.75 μM
  MIC: > 128 µg/mL
[2]; Enterococcus, VRE, VRE RBWH1, PBT2: 1.75 μM, Zinc: […]
  MIC: 1 to 2 µg/mL
[2]; Enterococcus, VRE, VRE RBWH1, Zinc: 32 μM
  MIC: > 128 µg/mL
[2]; Enterococcus, VRE, VRE RBWH1, Zinc: […] (PBT2 panel)
  MIC: > 128 µg/mL
[2]; Enterococcus, VRE, RA-HQ-12: 0 μM, Zn: 0 μM
  MIC: > 128 µg/mL
[2]; Enterococcus, VRE, RA-HQ-12: 3.5 μM
  MIC: > 128 µg/mL
[2]; Enterococcus, VRE, RA-HQ-12: 3.5 μM, Zn: […]
  MIC: > 128 µg/mL
[2]; Enterococcus, VRE, Zn: […] (RA-HQ-12 panel)
  MIC: > 128 µg/mL
[2]; VRE RBWH1
  antibiotic sensitivity of resistant strain: became sensitive
[3]; K. pneumoniae, RA-HQ-12: 16 μM
  MIC: >128 µg/mL
[3]; [12]
  MIC: >128 µg/mL
[3]; K. pneumoniae, Zn: 64 μM
  MIC: >128 µg/mL
[3]; Klebsiella pneumoniae, MS6771
  MIC: > 128 µg/mL
[4]; 1.5% vancomycin in combination with 2 mM PBT2 + 25 mM ZnSO4, ointment twice daily
  bacterial burden at the site of infection (CFUs): significantly reducing infection
[4]; treatment alone: 2 mM PBT2 + 25 mM ZnSO4, or 1.5% vancomycin, ointment twice daily
  bacterial burden at the site of infection (CFUs): Neither antibiotic nor sub-inhibitory concentrations of PBT2+zinc(II) ions alone reduced bacterial burden
[5]; [13]
  MIC: 1 µg/mL
[5]; [14]
  MIC: 1 µg/mL
[5]; Staphylococcus aureus
  MIC: 1 µg/mL

## [Zn+2] [Zinc(II) ion]
[1]; GAS HKU 16, substance alone
  MIC: 2 mM
[2]; VRE RBWH1, substance alone
  MIC: 3 mM
[6]
  antibacterial activity: neither PBT2 nor zinc(II) ions (in the form of zinc chloride) displayed antibacterial activity
[7]
  antibacterial activity: neither PBT2 nor zinc(II) ions (in the form of zinc chloride) displayed antibacterial activity
[8]
  antibacterial activity: neither PBT2 nor zinc(II) ions (in the form of zinc chloride) displayed antibacterial activity
[5]; MRSA USA300, substance alone
  MIC: 3 mM

## polymyxin B
[1]; GAS HKU16, RA-HQ-12+zinc(II) ions (ZnSO4)
  antibiotic resensitization: resensitize
[1]; GAS HKU16, addition of sub-inhibitory PBT2+zinc(II) ions
  antibiotic sensitivity of resistant strain: became sensitive
[1]; GAS, RA-HQ-12: 3.5 μM, Zn: […]
  MIC: 4^# μg/mL
[1]; Streptococcus pyogenes HKU16, CQ: 0 μM, Zinc: 0 μM
  MIC: 64 µg/mL
[1]; Streptococcus pyogenes HKU16, CQ: 6 μM
  MIC: 32 µg/mL
[1]; Streptococcus pyogenes HKU16, CQ: 6 μM, Zinc: 80 μM
  MIC: 1 µg/mL
[1]; Streptococcus pyogenes HKU16, PBT2: 0 μM, Zinc: 0 μM
  MIC: 64 to 128 µg/mL
[1]; Streptococcus pyogenes HKU16, PBT2: 4.75 μM
  MIC: 32 µg/mL
[1]; Streptococcus pyogenes HKU16, PBT2: 4.75 μM, Zinc: […]
  MIC: 1 to 2 µg/mL
[1]; Streptococcus pyogenes HKU16, Zinc: 80 μM
  MIC: 64 µg/mL
[1]; Streptococcus pyogenes HKU16, Zinc: […] (PBT2 panel)
  MIC: 64 µg/mL
[2]; VRE RBWH1, CQ: 2.5 μM
  MIC: 64 µg/mL
[2]; VRE RBWH1, CQ: 2.5 μM, Zinc: 32 μM
  MIC: 0.5 to 1 µg/mL
[2]; VRE RBWH1, PBT2: 1.75 μM
  MIC: 64 µg/mL
[2]; VRE RBWH1, PBT2: 1.75 μM, Zinc: […]
  MIC: 0.5 µg/mL
[2]; VRE RBWH1, RA-HQ-12+zinc(II) ions (ZnSO4)
  antibiotic resensitization: resensitize
[2]; VRE RBWH1
  antibiotic sensitivity of resistant strain: became sensitive
[2]; VRE, RA-HQ-12: 3.5 μM
  MIC: 16 µg/mL
[2]; VRE, RA-HQ-12: 3.5 μM, Zn: […]
  MIC: 4^# μg/mL
[3]; [12]
  MIC: 4^# μg/mL
[3]; Klebsiella pneumoniae MS6771, RA-HQ-12+zinc(II) ions (ZnSO4)
  antibiotic resensitization: resensitize
[3]; Klebsiella pneumoniae MS6771, addition of sub-inhibitory PBT2+zinc(II) ions
  antibiotic sensitivity of resistant strain: became sensitive
[3]; Klebsiella pneumoniae MS6771, combination with PBT2, no zinc
  antibiotic sensitivity of resistant strain: resulted in sensitivity
[3]; Klebsiella pneumoniae, CQ: 0 μM, Zinc: 0 μM
  MIC: 64 µg/mL
[3]; Klebsiella pneumoniae, CQ: 64 μM
  MIC: 2 µg/mL
[3]; Klebsiella pneumoniae, CQ: 64 μM, Zinc: 256 μM
  MIC: 2 µg/mL
[3]; Klebsiella pneumoniae, PBT2: 0 μM, Zinc: 0 μM
  MIC: 32 to 64 µg/mL
[3]; Klebsiella pneumoniae, Zinc: 256 μM (CQ panel)
  MIC: 32 to 64 µg/mL
[3]; Klebsiella pneumoniae, Zinc: 256 μM (PBT2 panel)
  MIC: 32 to 64 µg/mL
[9]; addition of sub-inhibitory PBT2+zinc(II) ions
  antibiotic sensitivity of resistant strain: became sensitive
[9]; combination with PBT2, no zinc
  antibiotic sensitivity of resistant strain: resulted in sensitivity
[9]; CQ: 0 μM, Zinc: 0 μM
  MIC: 8 µg/mL
[9]; CQ: 5 μM
  MIC: 2 to 4 µg/mL
[9]; CQ: 5 μM, Zinc: 25 μM
  MIC: 1 µg/mL
[9]; PBT2: 0 μM, Zinc: 0 μM
  MIC: 8 µg/mL
[9]; PBT2: 7 μM
  MIC: 1 µg/mL
[9]; PBT2: 7 μM, Zinc: 200 μM
  MIC: 0.5 µg/mL
[9]; Zinc: 25 μM
  MIC: 8 µg/mL
[9]; Zinc: 200 μM
  MIC: 8 µg/mL
[10]; PBT2
  MIC: 1 µg/mL
[10]; Untreated
  MIC: 8 µg/mL
[5]; MRSA USA300, CQ: 1 μM
  MIC: 64 µg/mL
[5]; MRSA USA300, CQ: 1 μM, Zinc: 32 μM
  MIC: 2 µg/mL
[5]; MRSA USA300, PBT2: 0 μM, Zinc: 0 μM
  MIC: 64 µg/mL
[5]; MRSA USA300, PBT2: 2 μM
  MIC: 64 µg/mL
[5]; MRSA USA300, PBT2: 2 μM, Zinc: 50 μM
  MIC: 2 µg/mL
[5]; MRSA USA 300, RA-HQ-12+zinc(II) ions (ZnSO4)
  antibiotic resensitization: resensitize
[5]; MRSA USA300, Zinc: 50 μM
  MIC: 64 µg/mL
[5]; MRSA USA300, addition of sub-inhibitory PBT2+zinc(II) ions
  antibiotic sensitivity of resistant strain: became sensitive
[5]; [13]
  MIC: 4^# μg/mL
[5]; [14]
  MIC: 32 µg/mL

## CN(C)Cc1ccc2c(Cl)cc(Cl)c(O)c2n1 [PBT2, 5,7-dichloro-2-[(dimethylamino)methyl]-8-quinolinol]
[1]; Streptococcus pyogenes, GAS HKU 16, substance alone, read-out: MIC
  MIC: > 0.03 mM
[2]; Enterococcus, VRE RBWH1, substance alone, read-out: MIC
  MIC: 0.0019 mM
[6]
  antibacterial activity: neither PBT2 nor zinc(II) ions (in the form of zinc chloride) displayed antibacterial activity
[7]
  antibacterial activity: neither PBT2 nor zinc(II) ions (in the form of zinc chloride) displayed antibacterial activity
[8]
  antibacterial activity: neither PBT2 nor zinc(II) ions (in the form of zinc chloride) displayed antibacterial activity
[11]
  safety and tolerability: safe and well tolerated
[5]; Staphylococcus aureus, MRSA USA300, substance alone
  MIC: 0.00375 mM
